molecular target: T1, Human TRPC6 (Homo sapiens, UniProt Q9Y210); assay: Evaluation of TRPC6 channel inhibitory activity (1), FLIPR Calcium 5 Assay Kit, OAG stimulation (Compound Nos. 1-1293); type: cell-based; settings: Human TRPC6 stably-expressing cells, OAG 30 μM, FLIPR Calcium 5 Assay Kit; read-out: Inhibitory activity (pIC50 class) (converted)
T1 construct: expressed in transfected cells
T1 sequence (Q9Y210 1-931): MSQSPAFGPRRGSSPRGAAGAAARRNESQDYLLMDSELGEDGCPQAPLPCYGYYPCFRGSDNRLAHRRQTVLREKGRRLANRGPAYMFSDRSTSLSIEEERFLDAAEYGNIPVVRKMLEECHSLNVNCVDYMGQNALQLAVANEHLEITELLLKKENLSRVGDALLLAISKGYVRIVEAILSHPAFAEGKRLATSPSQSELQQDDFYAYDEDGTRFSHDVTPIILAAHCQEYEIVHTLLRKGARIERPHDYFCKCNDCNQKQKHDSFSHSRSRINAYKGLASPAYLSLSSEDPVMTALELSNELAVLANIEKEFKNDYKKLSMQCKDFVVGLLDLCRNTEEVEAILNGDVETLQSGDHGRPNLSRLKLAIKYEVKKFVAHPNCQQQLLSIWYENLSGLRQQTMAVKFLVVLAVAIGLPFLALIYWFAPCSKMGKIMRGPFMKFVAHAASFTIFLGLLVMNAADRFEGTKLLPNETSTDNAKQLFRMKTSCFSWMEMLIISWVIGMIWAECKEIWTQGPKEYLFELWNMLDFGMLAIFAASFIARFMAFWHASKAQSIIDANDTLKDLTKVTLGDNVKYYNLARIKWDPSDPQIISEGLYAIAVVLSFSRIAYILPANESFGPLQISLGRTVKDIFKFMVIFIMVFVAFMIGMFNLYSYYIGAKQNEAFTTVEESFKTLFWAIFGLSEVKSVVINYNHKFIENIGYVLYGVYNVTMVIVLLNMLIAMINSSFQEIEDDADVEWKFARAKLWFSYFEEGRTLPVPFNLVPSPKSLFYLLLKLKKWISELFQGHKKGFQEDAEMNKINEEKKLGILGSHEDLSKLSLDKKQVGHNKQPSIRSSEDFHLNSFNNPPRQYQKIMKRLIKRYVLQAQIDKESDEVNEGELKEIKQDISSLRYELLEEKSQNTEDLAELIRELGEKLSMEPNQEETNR
Method in brief: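 Cells stably expressing human TRPC6, plated 24 h before, were loaded 30 min with Calcium 5 dye plus probenecid in HEPES-HBSS. Compound was added 20 min before OAG (30 μM final) and fluorescence tracked on FLIPR. Inhibition normalised to no-compound and no-compound/no-OAG wells; pIC50 from four-parameter fit, reported as +/++/+++ categories.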

| Compound | IC50 |
| --- | --- |
| Cc1ccc(-c2cc(Oc3cc(C#N)ccc3-n3cc(C(O)CN)cn3)nc(C)n2)cc1 (stereo not drawn) [Compound 142, 4-[4-(2-amino-1-hydroxyethyl)pyrazol-1-yl]-3-[2-methyl-6-(4-methylphenyl)pyrimidin-4-yl]oxybenzonitrile] | 10 to 1000 nM |
| CCC(N)c1cnc(-c2ccc(C#N)cc2Oc2cc(C)nc(N3CCOCC3)c2)nc1 (stereo not drawn) [compound 735, 4-[5-(1-aminopropyl)pyrimidin-2-yl]-3-(2-methyl-6-morpholin-4-ylpyridin-4-yl)oxybenzonitrile] | < 10 nM |
| N#Cc1ccc(-c2ccc(CN)cn2)c(Oc2cnnc(N3CCCC3)c2)c1 [compound 696, 4-[5-(aminomethyl)pyridin-2-yl]-3-(6-pyrrolidin-1-ylpyridazin-4-yl)oxybenzonitrile] | < 10 nM |
| Cc1nc(Oc2cc(C#N)ccc2-c2ncc(CN)cn2)cc(O[C@H]2CCOC2)n1 [compound 845, 4-[5-(aminomethyl)pyrimidin-2-yl]-3-[2-methyl-6-[(3S)-oxolan-3-yl]oxypyrimidin-4-yl]oxybenzonitrile] | > 1000 nM |
| CC(C)n1cc(C(=O)c2cc(C#N)ccc2-c2ncc(CN)cn2)cn1 [compound 1045, 4-[5-(aminomethyl)pyrimidin-2-yl]-3-(1-propan-2-ylpyrazole-4-carbonyl)benzonitrile] | < 10 nM |
| N#Cc1ccc(-c2ccc(CN)cn2)c(C(=O)c2sc(N3CCOCC3)nc2C(F)(F)F)c1 [compound 1080, 4-[5-(aminomethyl)pyridin-2-yl]-3-[2-morpholin-4-yl-4-(trifluoromethyl)-1,3-thiazole-5-carbonyl]benzonitrile] | < 10 nM |
| Cc1cc(Oc2cc(C#N)ccc2-c2ncc([C@H](O)CN)cn2)cc(-c2ncc(C)s2)n1 [compound 601, 4-[5-[(1S)-2-amino-1-hydroxyethyl]pyrimidin-2-yl]-3-[2-methyl-6-(5-methyl-1,3-thiazol-2-yl)pyridin-4-yl]oxybenzonitrile] | 10 to 1000 nM |
| Cn1nc(-c2ccccn2)cc1Oc1cc(C#N)ccc1-c1ncc(CNC2(C)COC2)cn1 [compound 665, 4-[5-[[(3-methyloxetan-3-yl)amino]methyl]pyrimidin-2-yl]-3-(2-methyl-5-pyridin-2-ylpyrazol-3-yl)oxybenzonitrile] | > 1000 nM |
| Cc1nc(Oc2cc(C#N)ccc2-n2cc([C@@H](O)CN)cn2)cc(N2CCCC(C)(C)C2)n1 [Compound 235, 4-[4-[(1R)-2-amino-1 hydroxyethyl]pyrazol-1-yl]-3-[6-(3,3-dimethylpiperidin-1-yl)-2-methylpyrimidin-4-yl]oxybenzonitrile] | 10 to 1000 nM |
| Cc1nc(Oc2cc(C#N)ccc2-c2ncc(CCN)cn2)cc(N(C)C(C)C)n1 [compound 857, 4-[5-(2-aminoethyl)pyrimidin-2-yl]-3-[2-methyl-6-[methyl(propan-2-yl)amino]pyrimidin-4-yl]oxybenzonitrile] | < 10 nM |
| Cn1nc(-c2ncco2)cc1Oc1cc(C#N)ccc1-c1ccc([C@H](O)CN)cn1 [compound 588, 4-[5-[(1S)-2-amino-1-hydroxyethyl]pyridin-2-yl]-3-[2-methyl-5-(1,3-oxazol-2-yl)pyrazol-3-yl]oxybenzonitrile] | 10 to 1000 nM |
| Cc1nc(Oc2cc(C#N)ccc2-c2ccc([C@H](O)CN)cn2)cc(-c2nccs2)n1 [compound 603, 4-[5-[(1S)-2-amino-1-hydroxyethyl]pyridin-2-yl]-3-[2-methyl-6-(1,3-thiazol-2-yl)pyrimidin-4-yl]oxybenzonitrile] | 10 to 1000 nM |
| Cn1nccc1Oc1cc(C#N)ccc1-c1ccc(CCN)cn1 [compound 300, 4-[5-(2-aminoethyl)pyridin-2-yl]-3-(2-methylpyrazol-3-yl)oxybenzonitrile] | 10 to 1000 nM |
| Cn1nc(C2CCOCC2)cc1Oc1cc(C#N)ccc1-c1cnc(CCN)cn1 [compound 389, 4-[5-(2-aminoethyl)pyrazin-2-yl]-3-[2-methyl-5-(oxan-4-yl)pyrazol-3-yl]oxybenzonitrile] | 10 to 1000 nM |
| Cc1cc(Oc2cc(C#N)ccc2-c2ccc(CC(C)(C)NCC(=O)N(C)C)cn2)cc(N2CCOCC2)n1 [compound 840, 2-[[1-[6-[4-cyano-2-(2-methyl-6-morpholin-4-ylpyridin-4-yl)oxyphenyl]pyridin-3-yl]-2-methylpropan-2-yl]amino]-N,N-dimethylacetamide] | > 1000 nM |
| Cc1nc(N2CCOCC2)sc1C(=O)c1cc(C#N)ccc1-c1ncc(CCN)cn1 [compound 1065, 4-[5-(2-aminoethyl)pyrimidin-2-yl]-3-(4-methyl-2-morpholin-4-yl-1,3-thiazole-5-carbonyl)benzonitrile] | < 10 nM |
| N#Cc1ccc(-c2ncc(CN)cn2)c(Oc2nnc(N3CC(F)C3)s2)c1 [compound 721, 4-[5-(aminomethyl)pyrimidin-2-yl]-3-[[5-(3-fluoroazetidin-1-yl)-1,3,4-thiadiazol-2-yl]oxy]benzonitrile] | > 1000 nM |
| Cc1nc(Oc2cc(C#N)ccc2-c2ccc3c(c2)CC(N)C3O)cc(N2CCOCC2)n1 (stereo not drawn) [Compound 134, 4-(2-amino-1-hydroxy-2,3-dihydro-1H-inden-5-yl)-3-(2-methyl-6-morpholin-4-ylpyrimidin-4-yl)oxybenzonitrile] | 10 to 1000 nM |
| Cn1nc(N2CCCCC2)cc1C(=O)c1cc(C#N)ccc1-c1ncc(CCN)cn1 [compound 1062, 4-[5-(2-aminoethyl)pyrimidin-2-yl]-3-(2-methyl-5-piperidin-1-ylpyrazole-3-carbonyl)benzonitrile] | < 10 nM |
| N#Cc1ccc(-c2ccc(CCN)cn2)c(Oc2cnnc(N3CCCCC3)c2)c1 [Compound 90, 4-[5-(2-aminoethyl)pyridin-2-yl]-3-(6-piperidin-1-ylpyridazin-4-yl)oxybenzonitrile] | 10 to 1000 nM |
| N#Cc1ccc(-c2ccc(CCN)cn2)c(Oc2nnc(N3CCOCC3)s2)c1 [compound 717, 4-[5-(2-aminoethyl)pyridin-2-yl]-3-[(5-morpholin-4-yl-1,3,4-thiadiazol-2-yl)oxy]benzonitrile] | 10 to 1000 nM |
| Cc1nc(C(C)c2cc(C#N)ccc2-c2ccc(CCN)cc2)cc(N2CCOCC2)n1 (stereo not drawn) [Compound No. 1226, 4-[4-(2-Aminoethyl)phenyl]-3-[1-(2-methyl-6-morpholin-4-ylpyrimidin-4-yl)ethyl]benzonitrile] | 10 to 1000 nM |
| Cn1nc(C2CC2)cc1Oc1cc(C#N)ccc1-c1ccc(NC(=O)C2CCNCC2)cn1 [compound 781, N-[6-[4-cyano-2-(5-cyclopropyl-2-methylpyrazol-3-yl)oxyphenyl]pyridin-3-yl]piperidine-4-carboxamide] | > 1000 nM |
| CCCc1cc(Oc2cc(C#N)ccc2-c2ccc(CCN)cn2)n(C)n1 [Compound 230, 4-[5-(2-aminoethyl)pyridin-2-yl]-3-(2-methyl-5-propylpyrazol-3-yl)oxybenzonitrile] | < 10 nM |
| CC(C)c1cc(Oc2cc(F)ccc2-c2ccc(CN)cn2)n(C)n1 [compound 1011, [6-[4-fluoro-2-(2-methyl-5-propan-2-ylpyrazol-3-yl)oxyphenyl]pyridin-3-yl]methanamine] | < 10 nM |
| CN(CC(F)F)c1cc(Oc2cc(F)ccc2-c2ncc(CN)cn2)n(C)n1 [compound 993, 5-[2-[5-(aminomethyl)pyrimidin-2-yl]-5-fluorophenoxy]-N-(2,2-difluoroethyl)-N,1-dimethylpyrazole-3-amine] | 10 to 1000 nM |
| Cn1nc(C2CC2)cc1Oc1cc(C#N)ccc1-c1cc(C(=O)NCCN)ccn1 [compound 551, N-(2-aminoethyl)-2-[4-cyano-2-(5-cyclopropyl-2-methylpyrazol-3-yl)oxyphenyl]pyridine-4-carboxamide] | 10 to 1000 nM |
| Cc1nn(CC2CC2)cc1C(=O)c1cc(C#N)ccc1-c1ncc(CCN)cn1 [compound 1033, 4-[5-(2-aminoethyl)pyrimidin-2-yl]-3-[1-(cyclopropylmethyl)-3-methylpyrazole-4-carbonyl]benzonitrile] | < 10 nM |
| Cc1nn(CC(C)C)cc1Cc1cc(F)ccc1-c1ncc(CN)cn1 [compound 1225, [2-[4-fluoro-2-[[3-methyl-1-(2-methylpropyl)pyrazol-4-yl]methyl]phenyl]pyrimidin-5-yl]methanamine] | 10 to 1000 nM |
| Cn1nc(-c2ccccn2)cc1Oc1cc(C#N)cnc1-c1ccc(CN)cc1 [compound 1288, 6-[4-(aminomethyl)phenyl]-5-(2-methyl-5-pyridin-2-ylpyrazol-3-yl)oxypyridine-3-carbonitrile] | > 1000 nM |

Reference: patent publication US20230167073A1 (Teijin Pharma Limited, priority 2020, published 2023)
